Test results as given in US6552080B1, “Fungicidal compounds having a fluorovinyl-or fluoropropenyl-oxyphenyloxime moiety and process for the preparation thereof” (Korea Research Institute of Chemical Technology, priority 1999, dated 2003).
Read-outs that look alike come from different tables or passages of the source.

Tests used:
[1] = tested on: Pyricularia oryzae Carvara KA301; type: in vivo; conditions: for RCV (Fungicidal Activities, C.V.): Rice Blast
Botrytis cinerae = test: Fungicidal activity against Cucumber Gray Mold Rot (CGM) disease; type: in vivo; conditions: for CGM (Fungicidal Activities, C.V.): Cucumber Gray Mold Rot, concentration 50 ppm; for Fungicidal Activities CGM (C.V.): 50 ppm
Phytophthora infestans = type: in vivo; conditions: for TLB (Fungicidal Activities, C.V.): Tomato Late Blight
Puccinia recondita = test: Fungicidal activity against Wheat Leaf Rust (WLR) disease; type: in vivo; conditions: for WLR (Fungicidal Activities, C.V.): Wheat Leaf Rust
Erysiphae graminis = test: Fungicidal activity against Barley Powdery Mildew (BPM) disease; type: in vivo; conditions: for BPM (Fungicidal Activities, C.V.): Barley Powdery Mildew
Rhizoctonia solani AG-1 = test: Fungicidal activity against Rice Sheath Blight (RSB) disease; conditions: for RSB (Fungicidal Activities, C.V.): Rice Sheath Blight
Description: To examine fungicidal activity of the compounds of the present invention, each of the compounds listed in Table 3 and 4 was dissolved in 10% acetone to a concentration of 250 ppm, and Tween-20 was added thereto to a concentration of 250 or 500 ppm. 50 ml of the resulting solution was sprayed on leaves of a host plant. The plant was kept at room temperature for 24 hours to let the solvent evaporate, and then, a pathogenic fungus was inoculated thereonto. The plant was held in a humidity chamber for 24 hours, transferred to an plant growth room kept at 20 to 27° C. and a relative humidity of 60 to 80% and kept to induce disease. […] This procedure was repeated twice for each test. 10% Acetone solution containing 250 ppm of Tween-20 was used as a control.
The fungicidal activity of the compound of the present invention is repressed by a control value (C.V.) calculated as; [formula]
Rhizoctonia solani AG-1 was cultured on a PDA medium (potato 200 g, dextrose 20 g, agar 20 g and distilled water 1 ? for 3 days and the agar disc(diameter 0.6 cm) was inoculated and cultured on sterilized wheat bran medium in a 1 L bottle at 26 to 28° C. for 7 days. A mycelial mass was ground using a homogenizer, inoculated uniformly on soil of a pot wherein a Nakdong rice plant having 2 or 3 leaves and an height of 5 cm grew, and kept in humidity polyvinyl chamber for 5 days to induce RSB. L.A. on a leaf sheath was measured to calculate an C.V.

| Compound | RCV (Fungicidal Activities, C.V.) ([1]; concentration 2 ppm) | RCV (Fungicidal Activities, C.V.) ([1]; concentration 10 ppm) | RCV (Fungicidal Activities, C.V.) ([1]; concentration 50 ppm) | CGM (Fungicidal Activities, C.V.) (Botrytis cinerae) | TLB (Fungicidal Activities, C.V.) (Phytophthora infestans; concentration 50 ppm) | WLR (Fungicidal Activities, C.V.) (Puccinia recondita; concentration 2 ppm) | WLR (Fungicidal Activities, C.V.) (Puccinia recondita; concentration 10 ppm) | WLR (Fungicidal Activities, C.V.) (Puccinia recondita; concentration 50 ppm) | BPM (Fungicidal Activities, C.V.) (Erysiphae graminis; concentration 2 ppm) | BPM (Fungicidal Activities, C.V.) (Erysiphae graminis; concentration 10 ppm) | BPM (Fungicidal Activities, C.V.) (Erysiphae graminis; concentration 50 ppm) | RSB (Fungicidal Activities, C.V.) (Rhizoctonia solani AG-1; concentration 50 ppm) | RSB (Fungicidal Activities, C.V.) (Rhizoctonia solani AG-1; concentration 2 ppm) | other results |
| --- | --- | --- | --- | --- | --- | --- | --- | --- | --- | --- | --- | --- | --- | --- |
| COC=C(C(=O)OC)c1ccccc1CON=C(C)c1cccc(OC(F)=C(c2ccc(C)c(C)c2)C(F)(F)F)c1 [Compound 153] | 0% | 25% | 86% | 20% | 13% | 91% | 100% | 100% | 83% | 99% | 100% | 55% | – | – |
| CON=C(C(=O)OC)c1ccccc1CON=C(C)c1cccc(OC(F)=C(c2ccc(Br)cc2)C(F)(F)F)c1 [Compound 187] | – | – | – | – | – | – | – | – | – | – | – | – | – | Fungicidal Activities RCV (C.V.) ([1]; 2 ppm): 97%; Fungicidal Activities RCV (C.V.) ([1]; 50 ppm): 83%; Fungicidal Activities CGM (C.V.) (Botrytis cinerae): 0%; Fungicidal Activities TLB (C.V.) (Phytophthora infestans; 2 ppm): 25%; Fungicidal Activities TLB (C.V.) (Phytophthora infestans; 50 ppm): 0%; Fungicidal Activities WLR (C.V.) (Puccinia recondita; 2 ppm): 95%; Fungicidal Activities WLR (C.V.) (Puccinia recondita; 50 ppm): 100%; Fungicidal Activities BPM (C.V.) (Erysiphae graminis; 2 ppm): 97%; Fungicidal Activities BPM (C.V.) (Erysiphae graminis; 50 ppm): 98%; Fungicidal Activities RSB (C.V.) (Rhizoctonia solani AG-1; 2 ppm): 20%; Fungicidal Activities RSB (C.V.) (Rhizoctonia solani AG-1; 50 ppm): 85% |
| CNC(=O)C(=NOC)c1ccccc1CON=C(C)c1cccc(OC(F)=Cc2cccc(OC)c2)c1 [Compound 80] | 100% | – | 100% | 77% | 72% | 96% | – | 100% | 100% | – | 100% | 100% | 45% | TLB (Fungicidal Activities, C.V.) (Phytophthora infestans; concentration 2 ppm): 12% |
| CON=C(C(=O)OC)c1ccccc1CON=C(C)c1cccc(OC(F)=Cc2ccc(C)cc2)c1 [Compound 66] | 100% | 100% | 100% | 75% | 0% | 99% | 100% | 100% | 100% | 100% | 100% | 100% | 20% | RSB (Fungicidal Activities, C.V.) (Rhizoctonia solani AG-1; concentration 10 ppm): 65% |
| CNC(=O)C(=COC)c1ccccc1CON=C(C)c1cccc(OC(F)=Cc2cccc(Cl)c2)c1 [Compound 62] | 92% | – | 96% | 25% | 0% | 83% | – | 99% | 0% | – | 100% | 0% | – | – |
| CNC(=O)C(=COC)c1ccccc1CON=C(C)c1cccc(OC(F)=Cc2ccc3c(c2)OCO3)c1 [Compound 63] | – | – | 96% | 33% | 0% | – | – | 90% | – | – | 97% | 11% | – | – |
| CCOc1ccc(C=C(F)Oc2cccc(C(C)=NOCc3ccccc3C(=NOC)C(=O)OC)c2)cc1 [Compound 73] | 100% | – | 95% | 0% | 60% | 98% | – | 100% | 100% | – | 100% | 100% | 25% | TLB (Fungicidal Activities, C.V.) (Phytophthora infestans; concentration 2 ppm): 0% |
| CNC(=O)C(=NOC)c1ccccc1CON=Cc1cccc(OC(F)=Cc2cccc(C)c2)c1 [Compound 31] | 97% | – | 100% | 25% | 8% | 83% | – | 100% | 8% | – | 100% | 52% | – | – |
| COC=C(C(=O)OC)c1ccccc1CON=Cc1cccc(OC(F)=Cc2ccc(OC)cc2)c1 [Compound 9] | 8% | 83% | 100% | 53% | 12% | 95% | 98% | 100% | 55% | 99% | 100% | 50% | – | – |
| COC=C(C(=O)OC)c1ccccc1CON=Cc1cccc(OC(F)=Cc2ccc(F)cc2)c1 [Compound 12] | 33% | 93% | 98% | 52% | 83% | 100% | 100% | 100% | 98% | 100% | 100% | 70% | – | – |
| COC=C(C(=O)OC)c1ccccc1CON=C(C)c1cccc(OC(F)=Cc2ccc(Cl)c(C)c2)c1 [Compound 52] | – | 80% | 97% | 52% | 42% | – | 96% | 100% | – | 100% | 100% | 65% | – | – |
| COC=C(C(=O)OC)c1ccccc1CON=C(C)c1cccc(OC(F)=C(c2cccc(C)c2)C(F)(F)F)c1 [Compound 151] | 93% | 99% | 100% | 24% | 12% | 86% | 95% | 100% | 98% | 100% | 100% | 95% | 35% | RSB (Fungicidal Activities, C.V.) (Rhizoctonia solani AG-1; concentration 10 ppm): 55% |
| CNC(=O)C(=NOC)c1ccccc1CON=C(C)c1cccc(OC(F)=C(c2ccc(F)cc2)C(F)(F)F)c1 [Compound 199] | – | – | – | – | – | – | – | – | – | – | – | – | – | Fungicidal Activities RCV (C.V.) ([1]; 2 ppm): 100%; Fungicidal Activities RCV (C.V.) ([1]; 50 ppm): 100%; Fungicidal Activities CGM (C.V.) (Botrytis cinerae): 80%; Fungicidal Activities TLB (C.V.) (Phytophthora infestans; 2 ppm): 12%; Fungicidal Activities TLB (C.V.) (Phytophthora infestans; 50 ppm): 60%; Fungicidal Activities WLR (C.V.) (Puccinia recondita; 2 ppm): 99%; Fungicidal Activities WLR (C.V.) (Puccinia recondita; 50 ppm): 100%; Fungicidal Activities BPM (C.V.) (Erysiphae graminis; 2 ppm): 100%; Fungicidal Activities BPM (C.V.) (Erysiphae graminis; 50 ppm): 100%; Fungicidal Activities RSB (C.V.) (Rhizoctonia solani AG-1; 2 ppm): 35%; Fungicidal Activities RSB (C.V.) (Rhizoctonia solani AG-1; 50 ppm): 100% |
